Data as given in EP2636410A1, “Utilization of the dichlorido complexes of platinum with 7-azaindole halogeno-derivatives for the preparation of drugs for the treatment of tumour diseases” (Univerzita Palackeho, priority 2012, dated 2013).

Assays:
Test in all cases: In vitro cytotoxicity, MTT micro-titration analysis
Assay type in all cases: cell-based
[1] = tested on: human cancer cell line of cisplatin-resistant ovarian carcinoma A2780R; conditions: A2780R cells, 24 h incubation with complex, read-out: inhibition concentrations IC50
Protocol: (§1) The cytotoxic activities of the prepared complexes, as it is given below in the examples 1-6, were tested by micro-titration analysis using 3-(4,5-dimethylthiazol-2-yl)-2,5-diphenyltetrazolium bromide (MTT). The test detected living cells, whose number corresponds to the reduced MTT quantity. In vitro cytotoxicity was tested against the following human cancer cells: lung carcinoma A549, malignant melanoma G361, cervix carcinoma HeLa, ovarian carcinoma A2780, cisplatin-resistant ovarian carcinoma A2780R and prostate carcinoma LNCaP. The cells were maintained in plastic tissue culture flasks in the DMEM medium (5 g/L of glucose, 2 mM of glutamine, 100 U/mL of penicillin, 100 µg/mL of streptomycine, 10% fetal calf serum and sodium hydrogen carbonate) for cell cultures. The cell suspensions (ca 1.25 x 10^5 cells mL^-1) were pipetted (80 µL) into 96-well microplates. They were incubated at 37 °C in the CO2 atmosphere for 24 h. […]
The in vitro antitumor activity of the studied complexes cis-[PtCl2(L2)2] […] (3) against human cancer cell line of cisplatin-resistant ovarian carcinoma A2780R was determined by the above-described micro-titration analysis using MTT (L2 = 3-chloro-7-azaindole, L3 = 3-iodo-7-azaindole, L6 = 5-bromo-7-azaindole).

[2] = tested on: human cancer cell line of malignant melanoma G361; conditions: G361 cells, 24 h incubation with complex, read-out: inhibition concentrations IC50
Protocol: as §1, with “h. The tested dichlorido complexes of platinum were dissolved in N,N'-dimethylformamide (DMF) and diluted to the 50.0 mM concentration - these solutions represent the stock solutions.” for “h.”
The in vitro antitumor activity of the studied complexes cis-[PtCl2(L2)2] […] (3) against human cancer cell line of malignant melanoma G361 was determined by the above-described micro-titration analysis using MTT (L2 = 3-chloro-7-azaindole, L3 = 3-iodo-7-azaindole, L6 = 5-bromo-7-azaindole).

[3] = tested on: human cancer cell line of prostate carcinoma LNCaP; conditions: LNCaP cells, 24 h incubation with complex, read-out: inhibition concentrations IC50
Protocol: as §1, with “h. The tested dichlorido complexes of platinum were dissolved in N,N'-dimethylformamide (DMF) and diluted to the 50.0 mM concentration - these solutions represent the stock solutions.” for “h.”
The in vitro antitumor activity of the studied complexes cis-[PtCl2(L2)2] […] (3) against human cancer cell line of prostate carcinoma LNCaP was determined by the above-described micro-titration analysis using MTT (L2 = 3-chloro-7-azaindole, L3 = 3-iodo-7-azaindole, L6 = 5-bromo-7-azaindole).

[4] = tested on: human cancer cell line of ovarian carcinoma A2780; conditions: A2780 cells, 24 h incubation with complex, read-out: inhibition concentrations IC50
Protocol: as §1, with “h. The tested dichlorido complexes of platinum were dissolved in N,N'-dimethylformamide (DMF) and diluted to the 50.0 mM concentration - these solutions represent the stock solutions.” for “h.”
The in vitro antitumor activity of the studied complexes cis-[PtCl2(L2)2] […] (3) against human cancer cell line of ovarian carcinoma A2780 was determined by the above-described micro-titration analysis using MTT (L2 = 3-chloro-7-azaindole, L3 = 3-iodo-7-azaindole, L6 = 5-bromo-7-azaindole).

[5] = tested on: human cancer cell line of cervix carcinoma HeLa; conditions: HeLa cells, 24 h incubation with complex, read-out: inhibition concentrations IC50
Protocol: as §1, with “h. The tested dichlorido complexes of platinum were dissolved in N,N'-dimethylformamide (DMF) and diluted to the 50.0 mM concentration - these solutions represent the stock solutions.” for “h.”
The in vitro antitumor activity of the studied complexes cis-[PtCl2(L2)2] […] (3) against human cancer cell line of cervix carcinoma HeLa was determined by the above-described micro-titration analysis using MTT (L2 = 3-chloro-7-azaindole, L3 = 3-iodo-7-azaindole, L6 = 5-bromo-7-azaindole).

[6] = tested on: human cancer cell line of lung carcinoma A549; conditions: A549 cells, 24 h incubation with complex, read-out: inhibition concentrations IC50
Protocol: as §1, with “h. The tested dichlorido complexes of platinum were dissolved in N,N'-dimethylformamide (DMF) and diluted to the 50.0 mM concentration - these solutions represent the stock solutions.” for “h.”
The in vitro antitumor activity of the studied complexes cis-[PtCl2(L2)2] […] (3) against human cancer cell line of lung carcinoma A549 was determined by the above-described micro-titration analysis using MTT (L2= 3-chloro-7-azaindole, L3 = 3-iodo-7-azaindole, L6 = 5-bromo-7-azaindole).

## N.N.[Cl][Pt][Cl] [cisplatin, Cis-diammine-dichloridoplatinum(II) complex, reference compound]
[1]
  IC50: 27 ± 4.6 µM
[2]
  IC50: 3.4 ± 0.1 µM
[3]
  IC50: 3.8 ± 1.5 µM
[4]
  IC50: 12 ± 0.8 µM
[5]
  IC50: 10 ± 2.6 µM
[6]
  IC50: 25.8 ± 7.1 µM
